The nature of this experiment: Inhibition of LFA1:CD11a/CD18/ICAM1-mediated human HL60 cell adhesion to human HeLa cells expressing ICAM1 by fluorescence analysis.

Bounds are passed on as bounds.

Turning to `CC[C@H]1CN2CCc3cc(OC)c(OC)cc3[C@@H]2C[C@@H]1C[C@H]1NCCc2cc(OC)c(OC)cc21` [6',7',10,11-tetramethoxyemetan], the half-inhibitory concentration (IC50) – broadly, the midpoint of a concentration-inhibition curve – was over 104 µM. As for `CC[C@H]1CN2CCc3cc(OC)c(OC)cc3[C@@H]2C[C@@H]1C[C@H]1NCCc2cc(O)c(OC)cc21` [CHEBI:3533], the figure is over 21.4 µM; as for `C=C1[C@@H](C)[C@H]2[C@H](Cc3ccccc3)NC(=O)[C@]23OC(=O)/C=C/[C@H](O)CCC[C@@H](C)C/C=C/[C@H]3[C@@H]1O` [CHEBI:23527], 11.4 µM.

These data come from BindingDB's records for doi:10.1021/np030086k (University of Mississippi, 2003).
